The results in this text go back to ChEMBL document CHEMBL1135183, “Design and synthesis of C-8 linked pyrrolobenzodiazepine-naphthalimide hybrids as anti-tumour agents” (2002).

As usually defined, the LC50 is the concentration lethal to half of the exposed cells or organisms.

Molecules are shown by their SMILES. A value given as a limit tells only on which side of the number the result lay.

Holding throughout (format): functional
Assay [1] relates to Panel melanoma (Carcinoma cell lines). The experiment in a line: Concentration of compound causing 50% lethality in Melanoma cell lines was determined. The note with it: Homo sapiens, read-out: Log LC50 (the source's name) (converted).
Another assay relates to leukaemia cell line. The assay is described as follows: Concentration of compound causing 50% lethality in Leukemia cell lines was determined. The settings on record: Homo sapiens, read-out: Log LC50 (the source's name) (converted).
For assay [2], the system named is Panel CNS (Carcinoma cell lines). The experiment in a line: Concentration of compound causing 50% lethality in CNS cell lines was determined. The note with it: Homo sapiens, read-out: Log LC50 (the source's name) (converted).
The subject of another assay is NSCLC. The experiment in a line: Concentration of compound causing 50% lethality in Non-small-cell lung cell lines was determined. The note with it: Homo sapiens, read-out: Log LC50 (the source's name) (converted).
In assay [3] the test system is Panel prostate (Carcinoma cell lines). The assay is described as follows: Concentration of compound causing 50% lethality in Prostate cell lines was determined. The note with it: Homo sapiens, read-out: Log LC50 (the source's name) (converted).
For assay [4], the system named is Panel renal (Carcinoma cell lines). The experiment in a line: Concentration of compound causing 50% lethality in Renal cell lines was determined. The note with it: Homo sapiens.
The test system of assay [5] is Panel colon (Carcinoma cell lines). The assay is described as follows: Concentration of compound causing 50% lethality in Colon cell lines was determined. The note with it: Homo sapiens.
The subject of assay [6] is Panel ovarian (Carcinoma cell lines). The assay is described as follows: Concentration of compound causing 50% lethality in Ovarian cell lines was determined. The note with it: Homo sapiens, read-out: Log LC50 (the source's name) (converted).
Assay [7] relates to Panel breast (Carcinoma cell lines). The experiment in a line: Concentration of compound causing 50% lethality in Breast cell lines was determined. The settings on record: Homo sapiens, read-out: Log LC50 (the source's name) (converted).

Turning to `COc1cc2c(cc1OCCCCCCCN1C(=O)c3cccc4cccc(c34)C1=O)N=C[C@@H]1CCCN1C2=O`, the CC50 in assay [1] was 37.2 µM; with leukaemia cell line, above 100 µM; in assay [2] it was above 100 µM; in the assay with NSCLC, 45.7 µM; in assay [3] it was above 100 µM; in assay [6] it was 87.1 µM. In assay [7], the CC50 is 43.7 µM. In assay [4], the LC50 (concentration causing 50% cell lethality) is 93.3 µM. Further, in assay [5], the LC50 was 38.9 µM.

`COc1cc2c(cc1OCCCCCN1C(=O)c3cccc4cccc(c34)C1=O)N=C[C@@H]1CCCN1C2=O`: the CC50 is 58.9 µM in assay [1]; 72.4 µM in the assay with leukaemia cell line; 72.4 µM in assay [2]; 69.2 µM in the assay with NSCLC; 61.7 µM in assay [3]; 81.3 µM in assay [6]. Besides, in assay [7], the CC50 is 60.3 µM. Also, in assay [4], the LC50 (concentration causing 50% cell lethality) is 30.9 µM. Also, the LC50 in assay [5] is 45.7 µM.

Take `COc1cc2c(cc1OCCCN1C(=O)c3cccc4cccc(c34)C1=O)N=C[C@@H]1CCCN1C2=O`: the CC50 in assay [1] is 97.7 µM; in the assay on leukaemia cell line, 77.6 µM; in assay [2], above 100 µM; in the assay on NSCLC it was 89.1 µM; in [3] it was above 100 µM; in [6] it was 97.7 µM. Moreover, in assay [7], the CC50 is above 100 µM. The same compound showed an LC50 (concentration causing 50% cell lethality) in [4] of 91.2 µM. This compound gave an LC50 in assay [5] of 97.7 µM.

`COc1cc2c(cc1OCCCCCCCCCCCCCCCCCN1C(=O)c3cccc4cccc(c34)C1=O)N=C[C@@H]1CCCN1C2=O`: the CC50 in assay [1] was 64.6 µM; in the assay on leukaemia cell line it was 61.7 µM; in [2], 51.3 µM; in the assay on NSCLC, 83.2 µM; in [3], 66.1 µM; in assay [6], 77.6 µM. In addition, the CC50 in assay [7] is 85.1 µM. In [4], this compound showed an LC50 (concentration causing 50% cell lethality) of 81.3 µM. In assay [5], this compound had an LC50 of 75.9 µM.

`COc1cc2c(cc1OCCCCCCCCCCCCCN1C(=O)c3cccc4cccc(c34)C1=O)N=C[C@@H]1CCCN1C2=O`: the CC50 in assay [1] is 81.3 µM; with leukaemia cell line, 77.6 µM; in [2], 77.6 µM; in the assay on NSCLC it was above 100 µM; in assay [3], 93.3 µM; in assay [6], 85.1 µM. Also, the CC50 in [7] is 95.5 µM. The LC50 (concentration causing 50% cell lethality) in assay [4] is 95.5 µM. The compound also gave an LC50 in assay [5] of 83.2 µM.
